Here are results for 31 compounds from patent publication US20160159789A1, “SUBSTITUTED PYRAZOLOPYRIDINES” (BAYER PHARMA AKTIENGESELLSCHAFT, priority 2013, published 2016).

What is called IC50 is the concentration at which inhibition is half-maximal. Lower therefore signals higher potency.

Molecules are shown by their SMILES.

The target in the experiment is T1, human full-length MKNK1 (Homo sapiens, UniProt Q9BUB5, T385D).
T1 construct: purchased Carna Biosciences 02-145; host or cells: insect cells (baculovirus expression system)
T1 sequence (Q9BUB5 1-424 isoform Q9BUB5-2 T344D): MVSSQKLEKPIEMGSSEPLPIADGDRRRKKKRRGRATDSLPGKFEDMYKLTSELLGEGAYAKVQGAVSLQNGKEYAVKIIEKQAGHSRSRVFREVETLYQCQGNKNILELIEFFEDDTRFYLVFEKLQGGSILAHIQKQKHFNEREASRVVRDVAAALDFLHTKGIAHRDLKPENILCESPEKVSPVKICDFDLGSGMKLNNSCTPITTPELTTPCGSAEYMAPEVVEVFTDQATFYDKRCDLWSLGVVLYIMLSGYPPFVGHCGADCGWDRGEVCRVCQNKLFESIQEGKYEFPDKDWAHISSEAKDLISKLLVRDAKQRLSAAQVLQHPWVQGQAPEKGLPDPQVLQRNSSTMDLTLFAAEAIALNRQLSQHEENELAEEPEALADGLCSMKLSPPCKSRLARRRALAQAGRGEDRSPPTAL
Kind of experiment: MKNK1 kinase high ATP assay (TR-FRET). The note with it: high ATP (2 mM final), 15 min preincubation with enzyme, GST-MKNK1 (T344D). Format: biochemical. In outline:
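GST-tagged full-length human MKNK1 from insect cells, preincubated 15 min with compound at 22° C in HEPES pH 7.5/MgCl2/DTT buffer, then reacted 30 min with 2 mM ATP and 0.06 μM biotinylated peptide (final). Phosphopeptide detected by TR-FRET (anti-pS6 pSer236/Eu-ProteinG, streptavidin-XL665), 665/620 ratio normalised to no-enzyme and no-inhibitor controls.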
On the technique in general: TR-FRET usually uses a lanthanide donor and a delayed reading to cut background.
In turn, `CN(C)C(=O)CCN(C)C(=O)c1nc2c(Nc3cc4cn[nH]c4cn3)ncnc2s1` [Example 137, N-[3-(Dimethylamino)-3-oxopropyl]-N-methyl-7-(1H-pyrazolo[3,4-c]pyridin-5-ylamino)[1,3]thiazolo[5,4-d]pyrimidine-2-carboxamide] showed an IC50 of 203 nM. In turn, `CN(C)C(=O)[C@H]1CCc2c(sc3ncnc(Nc4cc5cn[nH]c5cn4)c23)C1` [Example 60, (7S)—N,N-Dimethyl-4-(1H-pyrazolo[3,4-c]pyridin-5-ylamino)-5,6,7,8-tetrahydro[1]benzothieno[2,3-d]pyrimidine-7-carboxamide] gave a concentration for half-maximal inhibition (IC50) of 7.7 nM. Then `c1ccc(CCc2nc3c(Nc4cc5cn[nH]c5cn4)ncnc3s2)cc1` [Example 79, 2-(2-Phenylethyl)-N-(1H-pyrazolo[3,4-c]pyridin-5-yl)[1,3]thiazolo[5,4-d]pyrimidin-7-amine], with 1350 nM; and `CN(C)C(=O)CCN(C)C(=O)c1nc2c(Nc3cnc4[nH]ncc4c3)ncnc2s1` [Example 129, N-[3-(Dimethylamino)-3-oxopropyl]-N-methyl-7-(1H-pyrazolo[3,4-b]pyridin-5-ylamino)[1,3]thiazolo[5,4-d]pyrimidine-2-carboxamide], with 4290 nM. For the compound `C[C@@H]1COCCN1C(=O)[C@H]1CCc2c(sc3ncnc(Nc4cnc5[nH]ncc5c4)c23)C1` [Example 103, [(3R)-3-Methylmorpholin-4-yl][(7S)-4-(1H-pyrazolo[3,4-b]pyridin-5-ylamino)-5,6,7,8-tetrahydro[1]benzothieno[2,3-d]pyrimidin-7-yl]methanone], it took 35.8 nM to reach half-maximal inhibition (IC50). To `CN(C)C(=O)c1cc2c(Nc3cc4cn[nH]c4cn3)ncnc2[nH]1` [Example 18, N,N-Dimethyl-4-(1H-pyrazolo[3,4-c]pyridin-5-ylamino)-7H-pyrrolo[2,3-d]pyrimidine-6-carboxamide] belongs 11.1 nM; to `CN(C)CCNC(=O)c1[nH]c2ncnc(Nc3cnc4[nH]ncc4c3)c2c1Br` [Example 124, 5-Bromo-N-[2-(dimethylamino)ethyl]-4-(1H-pyrazolo[3,4-b]pyridin-5-ylamino)-7H-pyrrolo[2,3-d]pyrimidine-6-carboxamide], 65.9 nM; to `CN(C)C1CN(C(=O)[C@H]2CCc3c(sc4ncnc(Nc5cnc6[nH]ncc6c5)c34)C2)C1` [Example 142, [3-(Dimethylamino)azetidin-1-yl][(7S)-4-(1H-pyrazolo[3,4-b]pyridin-5-ylamino)-5,6,7,8-tetrahydro[1]benzothieno[2,3-d]pyrimidin-7-yl]methanone], 11.8 nM. In turn, `CN(C)[C@@H]1CCN(C(=O)[C@H]2CCc3c(sc4ncnc(Nc5cc6cn[nH]c6cn5)c34)C2)C1` [Example 84, [(3R)-3-(Dimethylamino)pyrrolidin-1-yl][(7S)-4-(1H-pyrazolo[3,4-c]pyridin-5-ylamino)-5,6,7,8-tetrahydro[1]benzothieno[2,3-d]pyrimidin-7-yl]methanone] showed an IC50 of 3.6 nM. To `CN(C)C(=O)CNC(=O)c1cc2c(Nc3cc4cn[nH]c4cn3)ncnc2[nH]1` [Example 76, N-[2-(Dimethylamino)-2-oxoethyl]-4-(1H-pyrazolo[3,4-c]pyridin-5-ylamino)-7H-pyrrolo[2,3-d]pyrimidine-6-carboxamide] belongs 71.5 nM; to `COc1nc2[nH]ncc2cc1Nc1ncnc2[nH]c(C(=O)N3CCC(N(C)C)CC3)c(Br)c12` [Example 64, {5-Bromo-4-[(6-methoxy-1H-pyrazolo[3,4-b]pyridin-5-yl)amino]-7H-pyrrolo[2,3-d]pyrimidin-6-yl}[4-(dimethylamino)piperidin-1-yl]methanone], 4.2 nM.

`COc1nc2[nH]ncc2cc1Nc1ncnc2[nH]c(C(=O)N(C)CCN(C)C)c(Br)c12` [Example 62, 5-Bromo-N-[2-(dimethylamino)ethyl]-4-[(6-methoxy-1H-pyrazolo[3,4-b]pyridin-5-yl)amino]-N-methyl-7H-pyrrolo[2,3-d]pyrimidine-6-carboxamide] gave an IC50 of 12 nM. For `CN1CCN(C(=O)C2CCc3[nH]c4ncnc(Nc5cc6cn[nH]c6cn5)c4c3C2)CC1` (racemic) [Example 33, (RS)-(4-Methylpiperazin-1-yl)[4-(1H-pyrazolo[3,4-c]pyridin-5-ylamino)-6,7,8,9-tetrahydro-5H-pyrimido[4,5-b]indol-6-yl]methanone], the IC50 turned out to be 90.4 nM.

`COc1nc2[nH]ncc2cc1Nc1ncnc2[nH]c(C(=O)N(C)CCCN(C)C)c(Br)c12` [Example 131, 5-Bromo-N-[3-(dimethylamino)propyl]-4-[(6-methoxy-1H-pyrazolo[3,4-b]pyridin-5-yl)amino]-N-methyl-7H-pyrrolo[2,3-d]pyrimidine-6-carboxamide] came in with an IC50 of 6.7 nM.

As to `COc1nc2[nH]ncc2cc1Nc1ncnc2sc3c(c12)CC[C@H](C(=O)N1CCOC[C@H]1C)C3` [Example 44], the concentration for half-maximal inhibition (IC50) stood at 0.9 nM. Regarding `O=C([C@H]1CCc2c(sc3ncnc(Nc4cnc5[nH]ncc5c4)c23)C1)N1CC2(COC2)C1` [Example 98, 2-Oxa-6-azaspiro[3.3]hept-6-yl[(7S)-4-(1H-pyrazolo[3,4-b]pyridin-5-ylamino)-5,6,7,8-tetrahydro[1]benzothieno[2,3-d]pyrimidin-7-yl]methanone], the IC50 amounted to 15.8 nM. As to `CN(C)CCCNC(=O)c1[nH]c2ncnc(Nc3cc4cn[nH]c4cn3)c2c1Br` [Example 118, 5-Bromo-N-[3-(dimethylamino)propyl]-4-(1H-pyrazolo[3,4-c]pyridin-5-ylamino)-7H-pyrrolo[2,3-d]pyrimidine-6-carboxamide], the IC50 came to 8.1 nM. Then `CN(C)C1CN(C(=O)[C@H]2CCc3c(sc4ncnc(Nc5cc6cn[nH]c6cn5)c34)C2)C1` [Example 140, 10 [3-(Dimethylamino)azetidin-1-yl][(7S)-4-(1H-pyrazolo[3,4-c]pyridin-5-ylamino)-5,6,7,8-tetrahydro[1]benzothieno[2,3-d]pyrimidin-7-yl]methanone], with 2.4 nM. Then `COCCN(C)C(=O)[C@H]1CCc2c(sc3ncnc(Nc4cnc5[nH]ncc5c4)c23)C1` [Example 96, (7S)—N-(2-Methoxyethyl)-N-methyl-4-(1H-pyrazolo[3,4-b]pyridin-5-ylamino)-5,6,7,8-tetrahydro[1]benzothieno[2,3-d]pyrimidine-7-carboxamide], with 18.8 nM; and `Cc1c[nH]c2ncnc(Nc3cc4cn[nH]c4cn3)c12` [Example 4, N-(5-Methyl-7H-pyrrolo[2,3-d]pyrimidin-4-yl)-1H-pyrazolo[3,4-c]pyridin-5-amine], with 4.2 nM. Then `O=C([C@H]1CCc2c(sc3ncnc(Nc4cc5cn[nH]c5nc4O)c23)C1)N1C[C@@H]2C[C@H]1CO2` [Example 115], with 6.9 nM. `CCc1[nH]c2ncnc(Nc3cc4cn[nH]c4cn3)c2c1C` [Example 8, N-(6-Ethyl-5-methyl-7H-pyrrolo[2,3-d]pyrimidin-4-yl)-1H-pyrazolo[3,4-c]pyridin-5-amine] showed a concentration for half-maximal inhibition (IC50) of 11.5 nM.

Consider `O=C(O)c1[nH]c2ncnc(Nc3cc4cn[nH]c4cn3)c2c1Br` [Example 14, 5-Bromo-4-(1H-pyrazolo[3,4-c]pyridin-5-ylamino)-7H-pyrrolo[2,3-d]pyrimidine-6-carboxylic acid], for which half-maximal inhibition (IC50) was put at 2.8 nM. Compound `CCN(C)C(=O)[C@H]1CCc2c(sc3ncnc(Nc4cc5cn[nH]c5nc4OC)c23)C1` [Example 39, (7S)—N-Ethyl-4-[(6-methoxy-1H-pyrazolo[3,4-b]pyridin-5-yl)amino]-N-methyl-5,6,7,8-tetrahydro[1]benzothieno[2,3-d]pyrimidine-7-carboxamide] had an IC50 of 1 nM.

Regarding `C[C@H]1COCCN1C(=O)c1[nH]c2ncnc(Nc3cnc4[nH]ncc4c3)c2c1Br` [Example 75, [5-Bromo-4-(1H-pyrazolo[3,4-b]pyridin-5-ylamino)-7H-pyrrolo[2,3-d]pyrimidin-6-yl][(3S)-3-methymorpholin-4-yl]methanone], inhibition was half-maximal at 61 nM (IC50). To `CCCCN(C)C(=O)[C@H]1CCc2c(sc3ncnc(Nc4cc5cn[nH]c5nc4O)c23)C1` [Example 52, (7S)—N-Butyl-4-[(6-hydroxy-1H-pyrazolo[3,4-b]pyridin-5-yl)amino]-N-methyl-5,6,7,8-tetrahydro[1]benzothieno[2,3-d]pyrimidine-7-carboxamide] belongs 6 nM; to `COc1nc2[nH]ncc2cc1Nc1ncnc2sc(C(=O)N(C)CC(=O)N(C)C)nc12` [Example 130, N-[2-(Dimethylamino)-2-oxoethyl]-7-[(6-methoxy-1H-pyrazolo[3,4-b]pyridin-5-yl)amino]-N-methyl[1,3]thiazolo[5,4-d]pyrimidine-2-carboxamide], 212 nM; to `CN(C)C1CCN(C(=O)c2[nH]c3ncnc(Nc4cc5cn[nH]c5nc4O)c3c2Br)CC1` [Example 65], 2.8 nM. For `CN(CC(C)(C)O)C(=O)[C@H]1CCc2c(sc3ncnc(Nc4cc5cn[nH]c5cn4)c23)C1` [Example 47, (7S)—N-(2-Hydroxy-2-methylpropyl)-N-methyl-4-(1H-pyrazolo[3,4-c]pyridin-5-ylamino)-5,6,7,8-tetrahydro[1]benzothieno[2,3-d]pyrimidine-7-carboxamide], half-maximal inhibition (IC50) required 11.1 nM.

`Cc1c[nH]c2ncnc(Nc3cnc4[nH]ncc4c3)c12` [Example 3, N-(5-Methyl-7H-pyrrolo[2,3-d]pyrimidin-4-yl)-1H-pyrazolo[3,4-b]pyridin-5-amine] yielded an IC50 of 25.9 nM. `CCCCN(C)C(=O)[C@H]1CCc2c(sc3ncnc(Nc4cc5cn[nH]c5nc4OC)c23)C1` [Example 51, (7S)—N—Butyl-4-[(6-methoxy-1H-pyrazolo[3,4-b]pyridin-5-yl)amino]-N-methyl-5,6,7,8-tetrahydro[1]benzothieno[2,3-d]pyrimidine-7-carboxamide]: the half-inhibitory concentration (IC50) amounted to 0.5 nM.
